These results are taken from PMC8864858, “Synthesis, in vitro biological evaluation and molecular modelling of new 2-chloro-3-hydrazinopyrazine derivatives as potent acetylcholinesterase inhibitors on PC12 cells” (BMC Chemistry, 2022).

Series [1] is described as follows: DPPH radical scavenging assay. It is filed as physicochemical. The conditions noted are these: for Scavenging activity on DPPH radical (in words): Fig. 3B. Here is the method:
(§1) The radical scavenging activity of prepared compounds was assessed through using ABTS decolorization assay and method reported by Re et al. with few modifications. In this regard, ABTS solution was diluted with 80% ethanol to the absorbance of 0.70 ± 0.05 at 734 nm. After adding 100 µL of the obtained compounds in ethanol (1–30 µM) or ascorbic acid, absorbance was measured at exactly 20 min in the same wavelength. DPPH assay was based on the method provided by Ghafouri et al. with some modifications. Additionally, the quenching of free radicals by novel synthesized compounds was evaluated spectrophotometrically (UV–Vis Pharmacia Biotech Ultrospec 3000) at 517 nm against the absorbance of DPPH radical. Further, ferric reducing/antioxidant power (FRAP) assay was performed according to the previous study with some modifications, the principle of which was based on reducing a ferric 2,4,6-tris(2-pyridyl)-1,3,5-triazine (Fe^3+-TPTZ) to ferrous in the presence of prepared compounds. Finally, a standard curve was drawn by considering the different concentrations (10–1000 µM) of ferrous sulfate.
In general terms: The DPPH test is a chemical assay of radical scavenging.

A short description of series [2]: ABTS radical decolorization assay. The class given is physicochemical. Conditions: final concentration 1–30 μM, absorbance at 734 nm. As for the experimental part: as §1
For series [3], the system named is PC12 cells. The series can be described thus: Cell viability of PC12 cells treated with CHP4 (MTT). The conditions noted are these: concentrations of 0–100 μM; 24 and 48 h. It is filed as cell-based. Here is the method: Rattus norvegicus pheochromocytoma PC12 cells (Pastor Institute, Iran) were cultured in the Dulbecco's Modified Eagle's Medium (DMEM) containing 10% fetal bovine serum (FBS) and 1% penicillin/streptomycin (Gibco) at 37 °C with 5% CO2. In order to examine the role of CHP4, PC12 cells were treated with the different concentrations (10–100 µM) of CHP4 for 24 and 48 h. […] Furthermore, […] 10 µL of 0.5 mg/mL MTT stock solution were added to each well containing about 1 mL of medium and the mixture was incubated for 4 h. Then, the plates were agitated on a plate shaker for 30 min and optical density was read at 570 nm by using an ELISA reader (Biotech).

A further series deals with Tau-p. The experiment in a line: Western blot analysis of Tau-p in PC12 cells. The class given is cell-based, Rattus norvegicus. Conditions: PC12 cells in presence of Ab1-42; CHP4 at 20 and 30 µM, 24 h. Here is the method:
(§2) To this end, the cells were seeded in the 6-well plate and treated with 20 and 30 µM CHP4 for 24 h. Additionally, they were washed with cold PBS, followed by lysing with lysis buffer (20 mM Tris (pH 7.5), 150 mM NaCl, 1 mM EDTA, 1% NP-40, 0.5% sodium deoxycholate, 0.1% SDS, 50 mM Tris, protease and phosphatase inhibitor cocktails) for 30 min on ice. After centrifuging lysates at 4 °C in 12,000g for 10 min, the supernatants were transferred to new tubes. Protein concentration was detected through using the Bradford assay. Further, the denatured proteins was resolved on SDS-PAGE, transferred onto PVDF membranes (Millipore, Billerica, MA, USA), and blocked with 5% nonfat dry milk in the PBS containing 0.1% Tween-20 (PBST). Then, the membranes were incubated with the rabbit primary antibodies against Tau-p, HSP70, and β-actin (as a control group) overnight at 4 °C, and exposed with the horseradish peroxidase (HRP)-conjugated second antibody for 2 h at room temperature. Finally, the density of relative protein bands was determined through densitometric scanning the blots by using Image-J program.
In general terms: Immunoblotting shows a protein as a band on a membrane.

Series [4] addresses T1, AChE from Electrophorus electricus (Electrophorus electricus, UniProt O42275).
T1 construct: purchased Sigma
The experiment in a line: biochemical. Conditions: Ellman method, compounds 0.1–10 µM, triplicate; read-out: IC50 against AChE activity. Here is the method: The AChE inhibitory activity of all synthesized novel derivatives and their controls was evaluated through using the Ellman method. […] Each concentration was assayed in triplicate. […] Finally, absorbance was recorded by using a Pharmacia Biotech Ultrospec 3000 UV–Vis spectrophotometer at 410 nm.

Series [5] deals with PC12 cells. The series can be described thus: Ab1-42-induced cytotoxicity in PC12 cells, neuroprotection (MTT). The class given is cell-based. Conditions: 100 µM Ab1-42, 24 h.
Description: Rattus norvegicus pheochromocytoma PC12 cells (Pastor Institute, Iran) were cultured in the Dulbecco's Modified Eagle's Medium (DMEM) containing 10% fetal bovine serum (FBS) and 1% penicillin/streptomycin (Gibco) at 37 °C with 5% CO2. […] Furthermore, 50 µL of DMSO and 10 µL of 0.5 mg/mL MTT stock solution were added to each well containing about 1 mL of medium and the mixture was incubated for 4 h. Then, the plates were agitated on a plate shaker for 30 min and optical density was read at 570 nm by using an ELISA reader (Biotech).
Series [6] is described as follows: Ferric reducing/antioxidant power (FRAP) assay. The class given is physicochemical. Conditions: for Antioxidant effect in FRAP (in words): Fig. 3C. As for the experimental part: as §1
For the next series, the system named is HSP70. The experiment in a line: Western blot analysis of HSP70 in PC12 cells. It is filed as cell-based, Rattus norvegicus. The conditions noted are these: PC12 cells in presence of Ab1-42; CHP4 30 μM (b1). As for the experimental part:
as §2

Structures are written as SMILES. “Also recorded” adds a separate entry of the source.

T1 sequence (O42275 24-633): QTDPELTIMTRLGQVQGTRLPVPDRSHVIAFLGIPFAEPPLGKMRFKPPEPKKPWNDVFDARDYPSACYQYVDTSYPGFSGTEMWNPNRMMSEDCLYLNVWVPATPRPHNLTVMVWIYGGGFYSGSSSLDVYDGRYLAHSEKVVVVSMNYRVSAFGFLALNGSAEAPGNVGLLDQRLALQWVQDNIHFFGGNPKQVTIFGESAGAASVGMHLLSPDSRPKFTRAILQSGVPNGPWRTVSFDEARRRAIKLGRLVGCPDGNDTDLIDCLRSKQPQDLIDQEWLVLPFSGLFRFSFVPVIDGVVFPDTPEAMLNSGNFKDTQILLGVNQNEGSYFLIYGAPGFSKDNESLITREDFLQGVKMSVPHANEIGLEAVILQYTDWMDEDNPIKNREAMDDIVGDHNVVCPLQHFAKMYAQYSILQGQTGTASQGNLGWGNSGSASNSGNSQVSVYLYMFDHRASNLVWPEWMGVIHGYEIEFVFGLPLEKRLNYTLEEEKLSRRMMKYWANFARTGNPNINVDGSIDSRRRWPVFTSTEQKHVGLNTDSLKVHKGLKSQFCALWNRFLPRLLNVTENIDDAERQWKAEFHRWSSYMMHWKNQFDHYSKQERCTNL

`COc1ccc(/C=N/Nc2nccnc2Cl)cc1` [CHP1, (E)-2-chloro-3-(2-(4-methoxybenzylidene) hydrazinyl) pyrazine]: the “Scavenging activity on DPPH radical (in words)” value (“Scavenging activity … (in words)” below) in series [1] is “moderate”. In addition, in series [2], the “ABTS radical scavenging activity (inhibition)” value was found to be 48%.
What is called IC50 is the concentration needed to halve the response being measured. In series [1] (517 nm), `Cc1ccc2occ(/C=N/Nc3nccnc3Cl)c(=O)c2c1` [CHP2, (E)-3-((2-(3-chloropyrazin-2-yl)hydrazineylidene)methyl)-6-methyl-4H-chromen-4-one] showed an IC50 of 26 µM. Further, the “Scavenging activity … (in words)” value in series [1] is listed as “highest scavenging activity”.
For the compound `Oc1cccc(/C=N/Nc2nccnc2Cl)c1` [CHP3, (E)-3-((2-(3-chloropyrazin-2-yl)hydrazineylidene)methyl)phenol], the “Scavenging activity … (in words)” value in series [1] was “highest scavenging activity”.
Turning to `Oc1ccccc1/C=N/Nc1nccnc1Cl` [CHP4, (E)-2-((2-(3-chloropyrazin-2-yl)hydrazineylidene)methyl)phenol], in the series with PC12 cells [3], the “Toxicity in PC12 cells” value is on record as “non-toxic”. Besides, in the series on Tau-p, the “Tau-p expression (western blot)” value is recorded as “clearly decreased”. Moreover, the IC50 in series [4] was determined as 3.76 µM. The “Scavenging activity … (in words)” value in series [1] is reported as “highest scavenging activity”. The “Effect on Ab1-42-induced cell death” value in the series with PC12 cells [5] is listed as “significantly reduced the Ab1-42-induced cell death in a dose-dependent manner”. Further, the “Antioxidant effect in FRAP (in words)” value in series [6] is “highest”. For the same compound, the “Ability for Fe3+ reduction (FRAP)” value in series [6] (printed as 3.016 per 1 mM, concentration of Fe2+) amounted to 3.016. In addition, the “HSP70 expression (western blot)” value with HSP70 is on record as “significantly increased; also recorded: increased HSP70 expression”.
Consider `Clc1ccc(/C=N/Nc2nccnc2Cl)cc1` [CHP5, (E)-2-chloro-3-(2-(4-chlorobenzylidene)hydrazineyl)pyrazine], for which the IC50 in series [4] stood at 4.2 µM. In series [1], the “Scavenging activity … (in words)” value is recorded as “low”. In addition, the “Antioxidant effect in FRAP (in words)” value in series [6] is recorded as “least”.
